Laboratory results reported in the supplement of paper PMC10307832.

Tests used:
Assay in all cases: relative viability (nuclei count vs DMSO), 5 days (fraction); higher = more cells survive
[1] = compound: CC(C)C[C@@H](C(=O)N[C@H](C(=O)OC1CCCC1)c1ccccc1)[C@H](O)C(=O)NO [Tosedostat] + O=C(c1cc(Cc2n[nH]c(=O)c3ccccc23)ccc1F)N1CCN(C(=O)C2CC2)CC1 [Olaparib] (partner 8 µM)
Outline: (§1)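 Each reported value is a median over duplicate plates. It expresses relative viability: treated-well nuclei count divided by vehicle-well nuclei count. Lung cancer cell lines in 1536-well plates were dosed by pin tool a day after seeding, alone with one drug or with a fixed anchor-drug dose plus five library-drug doses (not always all listed) in √10 steps, and nuclei were counted after 5 days.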

[2] = compound: CC1=NN=C(O1)C2=NN=C(C=C2)N3CCC(CC3)OC4=C(C=CC(=C4)F)Cl + O=C(CCCCCCC(=O)Nc1ccccc1)NO [Vorinostat] (partner 1 µM)
Outline: as §1

[3] = compound: CC(C)C[C@@H](C(=O)N[C@H](C(=O)OC1CCCC1)c1ccccc1)[C@H](O)C(=O)NO [Tosedostat] + Nc1nc2[nH]cc(CCc3ccc(C(=O)N[C@@H](CCC(=O)O)C(=O)O)cc3)c2c(=O)[nH]1 [Pemetrexed] (partner 0.2 µM)
Outline: as §1

[4] = compound: CC1=NN=C(O1)C2=NN=C(C=C2)N3CCC(CC3)OC4=C(C=CC(=C4)F)Cl + CS(=O)(=O)N1CCN(Cc2cc3nc(-c4cccc5[nH]ncc45)nc(N4CCOCC4)c3s2)CC1 [Pictilisib] (partner 1 µM)
Outline: as §1

Cell Line	relative viability ([1]; first compound 0.02 µM)	relative viability ([1]; first compound 0.06325 µM)	relative viability ([1]; first compound 0.2 µM)	relative viability ([1]; first compound 0.6325 µM)	relative viability ([1]; first compound 2 µM)	relative viability ([2]; first compound 0.253 µM)	relative viability ([2]; first compound 0.8 µM)	relative viability ([2]; first compound 2.53 µM)	relative viability ([2]; first compound 8 µM)	relative viability ([3]; first compound 0.02 µM)	relative viability ([3]; first compound 0.06325 µM)	relative viability ([3]; first compound 0.2 µM)	relative viability ([3]; first compound 0.6325 µM)	relative viability ([3]; first compound 2 µM)	relative viability ([4]; first compound 0.253 µM)	relative viability ([4]; first compound 0.8 µM)	relative viability ([4]; first compound 2.53 µM)	relative viability ([4]; first compound 8 µM)
201T	0.824	0.913	0.874	0.896	0.862	0.474	0.501	0.478	0.479	0.336	0.335	0.393	0.355	0.307	0.537	0.634	0.681	0.663
A549	0.42	0.247	0.359	0.26	0.306	–	–	–	–	–	–	–	–	–	0.406	0.255	0.319	0.234
A-427	0.763	0.674	0.708	0.757	0.747	0.796	0.689	0.791	0.703	0.97	1.02	0.936	0.946	0.852	0.859	–	0.675	0.54
ABC-1	0.842	0.784	0.843	0.848	0.491	0.542	0.487	0.402	0.525	–	–	–	–	–	0.389	0.532	0.547	0.464
BEN	1.11	0.952	1.31	1.09	1.02	0.566	0.536	0.551	0.538	0.845	0.893	0.997	1.2	1.06	0.571	0.62	0.68	0.584
CAL-12T	0.769	0.658	0.588	0.59	0.549	0.524	0.542	0.566	0.368	1.19	1.3	1.24	1.26	1.02	0.392	0.553	0.327	0.191
COR-L23	0.471	0.295	0.291	0.269	0.268	0.332	0.378	0.375	0.316	0.2	0.214	0.202	0.194	0.172	0.66	0.621	0.686	0.469
COR-L 105	0.771	0.636	0.695	0.507	0.591	0.797	0.919	0.794	0.8	1.16	0.915	1.01	0.857	0.894	0.426	0.405	0.334	0.378
Calu-6	0.631	0.494	0.5	0.439	0.326	–	–	–	–	–	–	–	–	–	0.735	0.747	0.702	0.696
ChaGo-K-1	0.459	0.399	0.44	0.377	0.325	0.546	0.444	0.55	0.448	0.269	0.257	0.275	0.267	0.275	0.633	0.681	0.508	0.548
EBC-1	0.661	0.637	0.546	0.442	0.409	–	–	–	–	–	–	–	–	–	0.33	0.485	0.473	0.408
EKVX	0.754	0.834	0.818	0.576	0.721	0.439	0.381	0.442	0.463	0.462	0.427	0.547	0.462	0.477	0.323	0.31	0.388	0.345
EMC-BAC-2	0.517	0.41	0.459	0.428	0.378	0.512	0.426	0.446	0.239	0.453	0.463	0.582	0.626	0.655	0.534	0.531	0.572	0.454
EPLC-272H	0.879	0.711	0.557	0.471	0.293	0.352	0.529	0.313	0.387	0.47	0.269	0.306	0.241	0.142	0.399	–	0.41	0.309
H3255	0.596	0.532	0.545	0.525	0.497	0.581	0.597	0.533	0.557	0.56	0.628	0.625	0.611	0.638	0.505	0.438	0.433	0.397
HARA	0.762	0.853	0.779	0.519	0.662	0.476	0.345	0.499	0.432	0.212	0.248	0.222	0.203	0.25	0.263	0.282	0.336	0.191
HCC-15	0.799	0.723	0.62	0.495	0.44	0.534	0.431	0.511	0.554	0.234	0.221	0.213	0.243	0.249	0.583	0.566	0.6	0.546
HCC-44	0.965	0.984	0.97	0.949	0.916	0.584	0.708	0.698	0.423	0.69	0.68	0.679	0.642	0.639	0.42	0.444	0.578	0.472
HCC-78	0.683	0.796	0.766	0.754	0.75	0.425	0.48	0.393	0.381	0.923	1.02	0.838	0.895	0.922	0.204	0.234	0.11	0.184
HCC-366	0.361	0.334	0.385	0.32	0.33	0.0995	0.112	0.127	0.0801	0.194	0.183	0.285	0.351	0.317	0.12	0.197	0.15	0.142
